{
  "source": "patent US20050004044A1",
  "about": "“Use of orsaponin [3beta, 16beta, 17 alpha-trihydroxycholost-5-en-22-one 16-0-(2-0-4-methoxybenzoyl-beta-D-xylopyranosyl)-(1->3)-(2-0-acetyl-alpha-L-arabinopyranoside)] or OSW-1 and its derivatives for cancer therapeutics” (priority 2003, published 2005)",
  "key": {"[1]": {"test_system": "C19 cells (ML-1 mutant with mitochondrial respiration defect)", "assay": "Mitochondrial transmembrane potential (rhodamine-123), C19", "format": "cell-based, human", "settings": "C19, 1 nM", "procedure": "FIG. 11. Effect of orsaponin (OSW-1) on mitochondrial transmembrane potential ML-1 cells. The parental ML-1 line and its mutant with mitochondrial respiration defect, clone C19, were incubated with 1 nM OSW-1 for the indicated times. Change in mitochondrial transmembrane potential was measured by cytometry analysis, using rhodamine-123 as a potential-sensitive fluorescent probe.\n3. Analysis of the Mitochondrial Transmembrane Potential. To evaluate the role of mitochondrial respiration in the cytotoxicity of OSW-1, changes in the potential of mitochondrial membrane were analyzed. Following the treatment of cells with OSW-1 for different time periods, cells were incubated with rhodamine-123 which is a potential-sensitive dye. Cytometric analysis was used to record changes in mitochondrial potential. […]\nThe effect of OSW-1 on mitochondrial transmembrane potential of ML-1 cells and the corresponding mitochondrial respiration defective mutant cell line C19 were analyzed by incubating with 1 nM OSW-1 for 4, 16 and 24 hours. Change in mitochondrial transmembrane potential was measured by cytometry analysis, using rhodamine-123 as a potential-sensitive fluorescent probe and are depicted in FIG. 11."}, "[2]": {"test_system": "human ovarian cancer SKOV3 cells", "assay": "Survival of nude mice inoculated i.p. with SKOV3", "format": "in vivo", "settings": "i.p. 10 μg/kg/day, 5 days/week for two weeks", "procedure": "FIG. 12. Nude mice were inoculated with human ovarian cancer SKOV3 cells (2×10^6/mouse, i.p., 10 mice/group). Drug treatment started on day 6 after tumor inoculation. OSW-1 was given by i.p. injection, 10 μg/kg/day, 5 days/week for two weeks.\nThus, nude mice were inoculated with human ovarian cancer SKOV3 cells at a concentration of 2×10^6/mouse, by the intraperitoneal route (i.p.) with 10 mice/group. Treatment with OSW-1 was started on day 6 after tumor inoculation. The control group was treated with saline. OSW-1 was given by i.p. injection, 10 μg/kg/day, 5 days/week for two weeks. […] When severe tumor burden and moribund signs appeared, euthanasia for the affected animal was performed according to IACUC standards."}, "[3]": {"test_system": "HCT116 p53+/+ colon cancer cells", "assay": "Colony formation assay, HCT116 p53+/+", "format": "cell-based, human", "procedure": "FIG. 6. Effect of OSW-1 on cell survival in human colon carcinoma cells. Human colon cancer cells with wild-type p53 (HCT116 p53+/+) and p53-null (HCT116 p53−/−) were treated with the indicated concentrations of OSW-1, and cell survival was measured by colony formation assay.\nOSW-1 Inhibits Growth of Human Colon Cancer Cells. […] The HCT116 colon cancer cells with wild-type p53 (p53+/+) and p53-null (p53−/−) were treated with the various concentrations of orsaponin (OSW-1), and cell survival was measured by colony formation assay."}, "HL-60 cells": {"test_system": "HL-60 cells", "assay": "Apoptosis and cell cycle (annexin V, DNA fragmentation, flow cytometry), HL-60", "format": "cell-based, human", "settings": "HL-60, 0.5 nM", "procedure": "FIGS. 1A-1B. Induction of apoptosis by Orsaponin (OSW-1) in human leukemia cells. HL-60 cells in exponentially growing phase were treated with 0.5 nM OSW-1 for the indicated times. Drug induced apoptosis was analyzed by the annexin V assay as shown in FIG. 1A and by the DNA fragmentation assay as shown in FIG. 1B. In FIG. 1A, the early and late stages of apoptotic cells appear in the low-right window and upper-right window, respectively.\nFIG. 9. Mitochondrial respiration plays an important role in the cytotoxic action of Orsaponin (OSW-1). The parental HL-60 line and its mutant with mitochondrial respiration defect, clone C6F, were incubated with 0.5 nM OSW-1 for the indicated times. Apoptosis and change in cell cycle distribution were assayed by flow cytometry analysis.\n2. Analysis of Apoptosis. Two methods were used to analyze apoptosis by assaying different events in the apoptotic pathways. Percentages of apoptotic cells induced by orsaponins of the invention were evaluated using flow cytometer. Different methods of staining cells for apoptosis were utilized to assess different aspects of apoptotic cascade.\n(i) Annexin V Staining. Annexin V binds to cells that express phosphatidylserine on the outer layer of the cell membrane. […] Cells were analyzed on flow cytometer.\n(ii) DNA Fragmentation Assay. […] The cell are then lysed in a solution containing 10 mM Tris-HCl, pH 7.5, 25 mM EDTA, 0.5% SDS, and […] protease K. After digestion and removal of the cellular protein from the cellular DNA, the isolated DNA is analyzed on a 1.8% agarose gel, and visualized by ethidium bromide staining. […]\nTwo cancer cell lines and their mutant mitochondrial respiration deficient clones were analyzed for apoptosis and changes in cell-cycle following exposure to OSW-1. […] Consistent with these observations, apoptosis was also detected by DNA fragmentation assays performed at 24 and 32 hours after HL-60 cells are treated with OSW-1; DNA fragmentation was not observed in C6F cells even at 32 hours of drug incubation (data not shown)."}},
  "data": [
    {"smiles": "COc1ccc(C(=O)OC2C(OC3C(O)COC(O[C@H]4C[C@H]5[C@@H]6CC=C7C[C@@H](O)CC[C@]7(C)[C@H]6CC[C@]5(C)[C@@]4(O)[C@H](C)C(=O)CCC(C)C)C3OC(C)=O)OCC(O)C2O)cc1", "note": "(stereo partly drawn) [OSW-1, 3β, 16β, 17 α-trihydroxycholost-5-en-22-one 16-O-(2-O-4-methoxybenzoyl-β-D-xylopyranosyl)-(1->3)-(2-O-acetyl-α-L-arabinopyranoside)]", "values": [
      {"measurement": "change in mitochondrial transmembrane potential", "setting": "[1]", "result": "loss of mitochondrial transmembrane potential in only a small portion the cells"},
      {"measurement": "Survival %", "setting": "[2]; 30 days", "result": 100, "unit": "%"},
      {"measurement": "Survival %", "setting": "[2]; 60 days", "result": 50, "unit": "%"},
      {"measurement": "cell survival, colony formation", "setting": "[3]", "result": "effective in killing human colon cancer cells regardless of p53 expression status"},
      {"measurement": "change in cell cycle distribution", "setting": "HL-60 cells; 16 hours", "result": "significant reduction of G1 phase cells and an increase of cells in the G2/M phase region"},
      {"measurement": "apoptosis (subG1)", "setting": "HL-60 cells; 24 h, flow cytometry", "result": "a substantial portion of the drug-treated HL-60 cells became apoptotic"},
      {"measurement": "time after incubation at which apoptosis occurred", "setting": "HL-60 cells; annexin V and DNA fragmentation", "result": 16, "unit": "h"}
    ]}
  ]
}
